Measured values published in ChEMBL document CHEMBL1697781, “Assessment of the health effects of chemicals in humans: II. Construction of an adverse effects database for QSAR modeling” (Curr Drug Discov Technol, 2004).

Tests used:
Details in all cases: human; call rule not given here
[1] = test system: Hepatotoxicity; assay: FDA HLAED, liver enzyme composite activity
[2] = test system: Hepatotoxicity; assay: FDA HLAED, alkaline phosphatase increase
[3] = test system: Hepatotoxicity; assay: FDA HLAED, serum glutamic oxaloacetic transaminase (SGOT) increase
[4] = test system: Hepatotoxicity; assay: FDA HLAED, serum glutamic pyruvic transaminase (SGPT) increase
[5] = test system: Hepatotoxicity; assay: FDA HLAED, lactate dehydrogenase (LDH) increase
[6] = test system: Hepatotoxicity; assay: FDA HLAED, gamma-glutamyl transferase (GGT) increase
Wherever GGT Increase - Index Value is given: reference of the scale not given here.
Wherever LDH Increase - Index Value is given: reference of the scale not given here.

SMILES	Composite Activity - Active [1]	Composite Activity - Marginal [1]	Composite Activity - Score [1]	Alkaline Phosphatase Increase - Activity Score [2]	Alkaline Phosphatase Increase - Index Value [2]	Alkaline Phosphatase Increase - Number of Reports [2]	SGOT Increase - Activity Score [3]	SGOT Increase - Index Value [3]	SGOT Increase - Number of Reports [3]	SGPT Increase - Activity Score [4]	SGPT Increase - Index Value [4]	SGPT Increase - Number of Reports [4]	LDH Increase - Activity Score [5]	LDH Increase - Index Value [5]	LDH Increase - Number of Reports [5]	GGT Increase - Activity Score [6]	GGT Increase - Index Value [6]	GGT Increase - Number of Reports [6]	further results
CCCCC(C)(O)C/C=C/[C@H]1[C@H](O)CC(=O)[C@@H]1CCCCCCC(=O)OC (stereo partly specified) [MISOPROSTOL]	0	0	Inactive	Inactive	0.8	>= 4	Inactive	0.8	>= 4	Inactive	0.2	< 4	Inactive	0.5	< 4	Inactive	0.5	< 4	–
O=C1c2c(O)ccc(O)c2C(=O)c2c(NCCNCCO)ccc(NCCNCCO)c21 [MITOXANTRONE]	1	0	Inactive	Inactive	4.5	< 4	Active	13.5	< 4	Inactive	4.5	< 4	Inactive	0	< 4	Inactive	0	< 4	–
COc1cc2c(cc1OC)[C@@H](Cc1cc(OC)c(OC)c(OC)c1)[N+](C)(CCCOC(=O)CC/C=C/CCC(=O)OCCC[N+]1(C)CCc3cc(OC)c(OC)cc3[C@H]1Cc1cc(OC)c(OC)c(OC)c1)CC2.[Cl-].[Cl-] (stereo partly specified) [MIVACURIUM CHLORIDE]	0	0	Inactive	Inactive	0	< 4	Inactive	0	< 4	Inactive	0	< 4	Inactive	0	< 4	Inactive	0	< 4	–
CCOC(=O)[C@H](CCc1ccccc1)N[C@@H](C)C(=O)N1Cc2cc(OC)c(OC)cc2C[C@H]1C(=O)O [MOEXIPRIL]	0	0	Inactive	Inactive	0	< 4	Inactive	1.3	< 4	Inactive	1.3	< 4	Inactive	0	< 4	Inactive	0	< 4	–
C[C@@H]1C[C@H]2[C@@H]3CCC4=CC(=O)C=C[C@]4(C)[C@@]3(Cl)[C@@H](O)C[C@]2(C)[C@@]1(O)C(=O)CCl [MOMETASONE]	0	0	Inactive	Inactive	0	< 4	Inactive	0	< 4	Inactive	0	< 4	Inactive	0	< 4	Inactive	0	< 4	–
CCOC(=O)Nc1ccc2c(c1)N(C(=O)CCN1CCOCC1)c1ccccc1S2 [MORICIZINE]	1	0	Inactive	Inactive	3.4	< 4	Active	13.7	>= 4	Inactive	3.4	< 4	Inactive	3.4	< 4	Inactive	0	< 4	–
C/C(=C\C(=O)OCCCCCCCCC(=O)O)C[C@@H]1OC[C@H](C[C@@H]2O[C@H]2[C@@H](C)[C@H](C)O)[C@@H](O)[C@H]1O [MUPIROCIN]	0	0	Inactive	Inactive	0	< 4	Inactive	0	< 4	Inactive	0	< 4	Inactive	0	< 4	Inactive	0	< 4	–
COc1c(C)c2c(c(O)c1C/C=C(\C)CCC(=O)O)C(=O)OC2 [MYCOPHENOLIC ACID]	1	0	Inactive	Inactive	5.7	< 4	Inactive	3.8	< 4	Active	9.6	>= 4	Inactive	1.9	< 4	Inactive	3.8	< 4	–
CCCCCCC(C)(C)c1cc(O)c2c(c1)OC(C)(C)C1CCC(=O)CC21 (stereo unspecified) [NABILONE]	0	0	Inactive	Inactive	0	< 4	Inactive	0	< 4	Inactive	0	< 4	Inactive	0	< 4	Inactive	0	< 4	–
COc1ccc2cc(CCC(C)=O)ccc2c1 [NABUMETONE]	0	0	Inactive	Inactive	0.8	>= 4	Inactive	0.6	>= 4	Inactive	0.6	>= 4	Inactive	0.3	>= 4	Inactive	0.5	>= 4	–
CC(C)(C)NCC(O)COc1cccc2c1CC(O)C(O)C2 (stereo unspecified) [NADOLOL]	0	0	Inactive	Inactive	0.3	< 4	Inactive	0.7	>= 4	Inactive	0.7	>= 4	Inactive	0	< 4	Inactive	0	< 4	–
CN(C/C=C/c1ccccc1)Cc1cccc2ccccc12 [NAFTIFINE]	–	–	–	Inactive	0	< 4	Inactive	0	< 4	Inactive	0	< 4	Inactive	0	< 4	Inactive	0	< 4	Composite Activity - Active ([1]; Liver): 0; Composite Activity - Marginal ([1]; Liver): 0; Composite Activity - Score ([1]; Liver): Inactive
